Measurements as given in ChEMBL document CHEMBL5550206, “Identification of 6-Fluorine-Substituted Coumarin Analogues as POLRMT Inhibitors with High Potency and Safety for Treatment of Pancreatic Cancer” (J Med Chem, 2024).
Calls of active or inactive are those of the source. The calls are words filed in the database; no cut-off is given here.

What was measured:
MIA PaCa-2 [1] = experiment: Induction of cell arrest in human MIA PaCa-2 cells assessed as early apoptotic cells at 100 nM measured after 4 days by Annexin V-FITC and propidium iodide (PI) staining based assay (reference value: 1.07%); assay type: functional; settings: time 4 day
MIA PaCa-2 [2] = experiment: Reduction in basal oxygen consumption rate (OCR) in human MIA PaCa-2 cells incubated for 168 hrs; assay type: functional, cell-based; settings: dose 1-200 nM
MIA PaCa-2 [3] = experiment: Induction of cell arrest in human MIA PaCa-2 cells assessed as necrotic cells at 25 nM measured after 4 days by Annexin V-FITC and propidium iodide (PI) staining based assay (reference value: 0.82%); assay type: functional; settings: time 4 day
MIA PaCa-2 [4] = experiment: Inhibition of RNA pol III in human MIA PaCa-2 cells assessed as effect on 5S RNA level at 0.1 to 1 uM measured after 12 hrs by RT-qPCR analysis; assay type: cell-based; settings: dose 0.1-1 µM
MIA PaCa-2 [5] = experiment: Induction of cell arrest in human MIA PaCa-2 cells assessed as early apoptotic cells at 25 nM measured after 4 days by Annexin V-FITC and propidium iodide (PI) staining based assay (reference value: 1.07%); assay type: functional; settings: time 4 day
MIA PaCa-2 [6] = experiment: Induction of cell arrest in human MIA PaCa-2 cells assessed as necrotic cells at 200 nM measured after 4 days by Annexin V-FITC and propidium iodide (PI) staining based assay (reference value: 0.82%); assay type: functional; settings: time 4 day
MIA PaCa-2 [7] = experiment: Down-regulation of CytB gene expression in human MIA PaCa-2 cells at 0.1 to 1 uM measured after 12 hrs by RT-qPCR analysis; assay type: functional, cell-based; settings: dose 0.1-1 µM
MIA PaCa-2 [8] = experiment: Induction of cell arrest in human MIA PaCa-2 cells assessed as accumulation of cells at S phase at 25 nM measured after 96 hrs by PI staining based flow cytometry (reference value: 16.8%); assay type: functional
MIA PaCa-2 [9] = experiment: Reduction of protein complexes of mitochondrial electron transport chain in human MIA PaCa-2 cells reduction in MTCO1 protein level by Western blot analysis; assay type: functional, cell-based; settings: dose 0.001-5 µM
MIA PaCa-2 [10] = experiment: Reduction in maximal oxygen consumption rate (OCR) in human MIA PaCa-2 cells incubated for 168 hrs; assay type: functional, cell-based; settings: dose 1-200 nM
MIA PaCa-2 [11] = experiment: Induction of cell arrest in human MIA PaCa-2 cells assessed as accumulation of cells at G1 phase at 50 nM measured after 96 hrs by PI staining based flow cytometry (reference value: 64%); assay type: functional
MIA PaCa-2 [12] = experiment: Reduction in number of mitochondria in human MIA PaCa-2 cells measured after 96 hrs by Mito-Tracker Green and DAPI staining based assay; assay type: functional, cell-based; settings: dose 10-1000 nM
MIA PaCa-2 [13] = experiment: Induction of cell arrest in human MIA PaCa-2 cells assessed as accumulation of cells at G2 phase at 500 nM measured after 96 hrs by PI staining based flow cytometry (reference value: 11.2%); assay type: functional
MIA PaCa-2 [14] = experiment: Effect on extracellular acidification rate (ECAR) in human MIA PaCa-2 cells at 1 to 200 nM incubated for 168 hrs; assay type: functional, cell-based; settings: dose 1-200 nM

For `CCN(CC)C(=O)[C@@H](C)Oc1cc2oc(=O)cc(-c3ccccc3C)c2cc1F`, the Activity (MIA PaCa-2 [1]) was 0.57%, the Activity (MIA PaCa-2 [2]) was “Dose-Dependent Effect” and the Activity (MIA PaCa-2 [3]) was 0.82%. For the same molecule, the inhibition (MIA PaCa-2 [4]) was “inactive”, the Activity (MIA PaCa-2 [5]) was 1.4% and the Activity (MIA PaCa-2 [6]) was 0.83%. For the same molecule, the Activity (MIA PaCa-2 [7]) was “Active”, the Activity (MIA PaCa-2 [8]) was 14.2% and the Activity (MIA PaCa-2 [9]) was “Dose-Dependent Effect”. For the same molecule, the Activity (MIA PaCa-2 [10]) was “Dose-Dependent Effect”, the Activity (MIA PaCa-2 [11]) was 67.1% and the Activity (MIA PaCa-2 [12]) was “Dose-Dependent Effect”. The Activity (MIA PaCa-2 [13]) was 11.6% and the Activity (MIA PaCa-2 [14]) was “inactive”.
